Assay [1] relates to MEF cells. The assay can be described thus: Glucose uptake, 2-NBDG labeling, high-content imaging (Operetta), MEFs. Format: cell-based, mouse. As to the method: (§1) Increased glucose uptake was indicated as increasing signal of 2-NBDG ([…]) in cells. Glucose uptake assays were carried out in a final incubation volume of 50 μl consisting of, 2-NBDG), (100 μM) in 1× Phosphate Buffered Saline w/Ca+, Mg+ (PBS++). The same buffer was used for washing cells. Insulin was used as a positive control. All testing compounds were prepared in 10% DMSO and diluted 1:100 for a final concentration of 0.1% DMSO (vehicle). Cells were culture to 70-90% confluence and then washed twice with PBS++. Cells were incubated for 30 minutes at 37° C. in PBS++. Nuclear stain, HCS CellMask stain (blue, Invitrogen), and/or testing compounds (ellagic acid dihydrate, insulin, or vehicle) were added. Cells were incubated for 30 min at 37° C. Cells were washed twice with PBS++and incubated with 2-NBDG for 10 minutes. Cells were washed thrice with PBS++and then imaged in PBS++. Alternatively, the final PBS wash was removed and cells were incubated with Accutase (Invitrogen) for 10 min at 37° C., neutralized with 10% FBS in 1× PBS, and analyzed by flow cytometry. An additional experiment was performed to measure glucose uptake in C2C12 cells exposed to metformin, insulin and ellagic acid dihydrate 2 (batch 2). FIG. 5C. Glucose uptake in ellagic acid dihydrate treated cell culture was measured and compared to glucose uptake under insulin or ellagic acid treatment. […] Flow cytometry results were run in triplicate with 1000 cells per batch.

The target in a further assay is glucose oxidase reaction (Aspergillus niger, UniProt P13006). The assay can be described thus: Direct interaction with glucose, glucose oxidase based glucometer on serum. Format: biochemical. To be noted: incubated with serum at room temperature for five minutes or overnight at 37° C. As for the experimental part:
Ellagic acid dihydrate was analyzed for direct interaction with glucose. A glucose oxidase based glucometer was used to measure serum glucose. Ellagic acid dihydrate was incubated with serum at room temperature for five minutes or overnight at 37° C. Upon testing the mixture, no inhibition of the glucose oxidase reaction was observed. Ellagic acid dihydrate is not believed to directly interact with glucose.

Assay [2] has as its system MEF cells. In words: Glucose uptake, 2-NBDG labeling, flow cytometry, MEFs. Format: cell-based, mouse. As to the method: as §1, with “Cellular assays were performed using mouse myoblast C2C12 cells and MEF cells. […] Increased” for “Increased”
A general note: A flow cytometer gives signals particle by particle.

Assay [3] concerns p44/42 MAPK / Phos p44/42 MAPK in C2C12 cells. In words: p44/42 MAPK:phos p44/42 MAPK ratio by immunocytochemistry, high-content imaging. Format: cell-based, mouse. The following applies: C2C12, treated 30 minutes, 400 nM, 0.04 nM, FIG. 9. As for the experimental part:
Stimulation of AKT pathways and MAPK pathways in ellagic acid dihydrate, metformin, and insulin treated cell cultures was performed. Insulin stimulates glucose uptake into cells by increasing GLUT4 activation, and AKT, specifically phos-AKT, signaling alters GLUT4 translocation. […] Cellular assays were performed using mouse myoblast C2C12 cells. Relative protein levels of AKT:phos AKT and p44/42 MAPK:phos p44/42 MAPK were determined.
Serum starved cells (1 hr) were treated for 30 minutes with each of the tested compounds. Ratios of phosphorylated to non-phosphorylated proteins were determined using immunocytochemistry labeling (anti-AKT, anti-Phos AKT; or anti-p44/42 MAPK, anti-Phos p44/42 MAPK) on a high-content imaging system (Operetta, Perkin Elmer) using the fluorescent signal of anti-rabbit Alexa 647. Increased phosphorylation is indicated as decrease in signal of AKT:Phos AKT ratio (log2 scale) and p44/42 MAPK:Phos p44/42 MAPK ratio (log2 scale) relative to vehicle treated cells.

In assay [4] the test system is mouse myoblast C2C12 cells. The assay can be described thus: Glucose uptake, 2-NBDG labeling, flow cytometry, C2C12. Format: cell-based. As to the method:
Cellular assays were performed using mouse myoblast C2C12 cells and MEF cells. […] Increased glucose uptake was indicated as increasing signal of 2-NBDG ([…]) in cells. Glucose uptake assays were carried out in a final incubation volume of 50 μl consisting of, 2-NBDG), (100 μM) in 1× Phosphate Buffered Saline w/Ca+, Mg+ (PBS++). The same buffer was used for washing cells. Insulin was used as a positive control. All testing compounds were prepared in 10% DMSO and diluted 1:100 for a final concentration of 0.1% DMSO (vehicle). Cells were culture to 70-90% confluence and then washed twice with PBS++. Cells were incubated for 30 minutes at 37° C. in PBS++. Nuclear stain, HCS CellMask stain (blue, Invitrogen), and/or testing compounds (ellagic acid dihydrate, insulin, or vehicle) were added. Cells were incubated for 30 min at 37° C. Cells were washed twice with PBS++and incubated with 2-NBDG for 10 minutes. Cells were washed thrice with PBS++and then imaged in PBS++. Alternatively, the final PBS wash was removed and cells were incubated with Accutase (Invitrogen) for 10 min at 37° C., neutralized with 10% FBS in 1× PBS, and analyzed by flow cytometry. An additional experiment was performed to measure glucose uptake in C2C12 cells exposed to metformin, insulin and ellagic acid dihydrate 2 (batch 2). FIG. 5C.

Entries after “also recorded” stand apart in the source; their conditions may differ.

glucose oxidase reaction, sequence (P13006 17-605): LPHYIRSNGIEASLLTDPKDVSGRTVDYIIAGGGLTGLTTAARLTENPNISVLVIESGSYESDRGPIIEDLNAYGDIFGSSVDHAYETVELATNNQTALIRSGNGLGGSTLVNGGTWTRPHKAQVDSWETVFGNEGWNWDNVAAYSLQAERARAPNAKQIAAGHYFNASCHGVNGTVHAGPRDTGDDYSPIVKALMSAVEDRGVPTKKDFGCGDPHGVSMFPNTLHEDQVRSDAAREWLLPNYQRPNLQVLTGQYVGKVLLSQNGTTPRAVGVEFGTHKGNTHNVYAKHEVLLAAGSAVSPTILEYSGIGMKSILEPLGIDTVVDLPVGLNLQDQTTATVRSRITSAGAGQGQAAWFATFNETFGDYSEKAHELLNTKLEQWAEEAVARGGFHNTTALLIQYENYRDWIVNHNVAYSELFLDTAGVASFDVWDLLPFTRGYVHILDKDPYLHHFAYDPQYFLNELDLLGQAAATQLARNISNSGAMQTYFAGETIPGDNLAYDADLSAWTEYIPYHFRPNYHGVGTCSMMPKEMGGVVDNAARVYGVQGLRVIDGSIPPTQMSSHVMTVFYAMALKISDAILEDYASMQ

Take `O.O.O=c1oc2c(O)c(O)cc3c(=O)oc4c(O)c(O)cc1c4c23` [ellagic acid dihydrate]: the “dose effect for increasing glucose uptake” value was “showed a dose effect” in the assay on MEF cells [1]; “showed a dose effect” in the assay on MEF cells [2] (MEFs, flow cytometry, 4 μM-0.04 nM); “showed a dose effect” in assay [4] (C2C12, flow cytometry, 4 μM-0.04 nM). Also, in the assay on MEF cells [1], the “glucose uptake (signal of 2-NBDG) in comparison to vehicle” value is on record as “showed an increase in glucose uptake”. Besides, the “glucose uptake (2-NBDG signal) relative to vehicle treated or Insulin treated cells” value in the assay on MEF cells [1] (data not shown) is “significantly greater”. Besides, on glucose oxidase reaction, the “inhibition of the glucose oxidase reaction” value is reported as “no inhibition”. Besides, in the assay with MEF cells [2] (400 nM exposure, fibroblasts, FIG. 4B), the “increased glucose uptake relative to vehicle treated cells” value is recorded as 47%. Further, the “increase in glucose uptake compared with ellagic acid or insulin treatment” value with MEF cells [2] (MEFs, flow cytometry, Example 5, FIG. 6) was “significantly greater increase in glucose uptake”. Also, the “glucose uptake (2-NBDG signal) relative to vehicle” value in the assay on MEF cells [2] (MEFs, flow cytometry, FIG. 4A) is recorded as “significantly greater than vehicle treated”; in assay [4] (C2C12, flow cytometry, FIG. 5A), “significantly greater than vehicle treated”. In addition, the “glucose uptake relative to insulin” value with MEF cells [2] (fibroblasts, at most concentrations tested, significant at 4 nM-4 μM, dihydrate) is listed as “significantly more glucose uptake relative to insulin; also recorded: exceeded the uptake induced by insulin”; in assay [4] (myoblasts, at most concentrations tested, significant at 4 nM-4 μM, dihydrate) it was “significantly more glucose uptake relative to insulin; also recorded: exceeded the uptake induced by insulin”. Further, the “glucose uptake per unit dose” value in the assay on MEF cells [2] (in vitro conditions, summary statement) was “increase in glucose uptake per unit dose”. The “p44/42 MAPK:Phos p44/42 MAPK ratio relative to vehicle treated cells” value in assay [3] is reported as “increase in p44/42 MAPK”. In addition, the “increase in glucose uptake in myoblasts relative to fibroblasts” value in assay [4] (C2C12 (FIGS. 5A, 5B) versus MEFs (FIGS. 4A, 4B)) is on record as around 4 ×. Moreover, the “increase in glucose uptake compared with metformin” value in assay [4] (C2C12, 4000 nm, FIG. 5C (batch 2)) is on record as “greater increase in glucose uptake than metformin”.

The record behind these values is patent publication US20170368018A1, “USE OF ELLAGIC ACID DIHYDRATE IN PHARMACEUTICAL FORMULATIONS TO REGULATE BLOOD GLUCOSE LEVELS” (HALO LIFE SCIENCE, LLC, priority 2014, published 2017).
